Key:
[1] = target: T1, AHAS (acetohydroxyacid synthase) in enzyme extracts from normal rice variety Lemont (Oryza sativa subsp. japonica, UniProt Q6K2E8); experiment: AHAS enzyme assay, extract from rice variety Lemont; assay type: biochemical
T1 construct: 40.0 grams (fresh weight) of tissue were extracted in the same manner for each of the three varieties; from tissue; host or cells: stem tissue of greenhouse-grown rice seedlings, variety Lemont (leaf blades removed)
T1 sequence (Q6K2E8 40-644 limits assumed): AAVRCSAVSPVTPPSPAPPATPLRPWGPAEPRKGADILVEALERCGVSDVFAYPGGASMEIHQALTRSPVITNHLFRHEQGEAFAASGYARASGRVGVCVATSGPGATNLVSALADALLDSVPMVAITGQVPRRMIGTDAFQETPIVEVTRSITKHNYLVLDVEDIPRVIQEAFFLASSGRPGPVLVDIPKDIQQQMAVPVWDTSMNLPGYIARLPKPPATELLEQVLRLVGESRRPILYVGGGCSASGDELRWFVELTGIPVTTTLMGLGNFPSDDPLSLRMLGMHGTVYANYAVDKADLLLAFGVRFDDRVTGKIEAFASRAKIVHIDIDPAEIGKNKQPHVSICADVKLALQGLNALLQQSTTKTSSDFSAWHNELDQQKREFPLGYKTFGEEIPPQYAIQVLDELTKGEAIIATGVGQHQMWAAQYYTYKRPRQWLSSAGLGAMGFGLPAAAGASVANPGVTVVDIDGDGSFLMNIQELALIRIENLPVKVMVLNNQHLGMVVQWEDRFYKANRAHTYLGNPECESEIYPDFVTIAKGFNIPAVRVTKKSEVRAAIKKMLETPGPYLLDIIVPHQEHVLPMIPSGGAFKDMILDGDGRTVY
Source text: (§1) The herbicide resistance of the AHAS enzyme from the ATCC 75295 rice line was compared to the resistance of the AHAS enzymes from the rice varieties "Lemont" and "Mercury," the varieties that were the ancestors of this rice line. The procedures used to assay the activity of acetohydroxyacid synthase were substantially as described in B. K. Singh et al., "Assay of Acetohydroxyacid Synthase," Analytical Biochemistry, vol. 171, pp. 173-179 (1988), except as noted. In the first paragraph of Singh's "Materials and Methods," instead of corn suspension culture cells, stem tissues from greenhouse-grown rice seedlings at the four-leaf stage of development were used. Leaf blades were removed, and 40.0 grams (fresh weight) of tissue were extracted in the same manner for each of the three varieties. […] Pursuit herbicide (imazethapyr) was included in the "standard reaction mixture" for the AHAS assay in the concentrations indicated in Table 1 below. Checks were made of direct acetoin formation during the enzyme assay. Each treatment was conducted with two replicates.

[2] = target: T2, AHAS (acetohydroxyacid synthase) in enzyme extracts from normal rice variety Mercury (Oryza sativa subsp. japonica, UniProt Q6K2E8); experiment: AHAS enzyme assay, extract from rice variety Mercury; assay type: biochemical
T2 construct: 40.0 grams (fresh weight) of tissue were extracted in the same manner for each of the three varieties; from tissue; host or cells: stem tissue of greenhouse-grown rice seedlings, variety Mercury (leaf blades removed)
T2 sequence (Q6K2E8 40-644 limits assumed): T1 sequence (Q6K2E8 40-644 limits assumed)
Source text: as §1

[3] = target: T3, AHAS (acetohydroxyacid synthase) in enzyme extracts from rice line ATCC 75295 (Oryza sativa subsp. japonica, UniProt Q6K2E8); experiment: AHAS enzyme assay, extract from rice line ATCC 75295; assay type: biochemical
T3 construct: 40.0 grams (fresh weight) of tissue were extracted in the same manner for each of the three varieties; from tissue; host or cells: stem tissue of greenhouse-grown rice seedlings, line ATCC 75295 (leaf blades removed)
T3 sequence (Q6K2E8 40-644 limits assumed): T1 sequence (Q6K2E8 40-644 limits assumed)
Source text: as §1

[4] = tested on: rice line ATCC 75295 (first resistance mechanism only); experiment: Greenhouse test of plant vigor after imazethapyr, ATCC 75295; assay type: in vivo; details: for Rating of rice plant vigor: 36 days after treatment at 2-3 leaf stage, 10-point scale, 0 = dead plant, 10 = no visible injury
Source text: In the greenhouse tests, pots were planted with F3 seed from crosses between the two lines. Each pot was planted with seed from a single panicle from a single plant; each pot was therefore the equivalent of a headrow. A total of 140 pots were planted in this manner, along with 40 pots of various non-resistant genotypes for comparison. Imazethapyr was applied at the 2-3 leaf stage two weeks after planting, at rates equivalent to 0.063 lb. active ingredient (a.i.) per acre, 0.125 lb. a.i./acre, and 0.313 lb. a.i./acre.
Table 2 summarizes measurements taken 36 days after spraying rice at the 2-3 leaf stage of development.

[5] = tested on: resistant progeny row (rice line ATCC 75295); experiment: Open-field spray screen of anther-culture progeny rows, resistant row; assay type: in vivo
Protocol: This resistant line was derived by conducting anther culture on the F2 progeny of a backcross made by pollinating a rice plant of the variety "Lemont" with pollen from the rice variety "Mercury," followed by a backcross using pollen from this hybrid to pollinate a plant of the variety "Mercury." The resulting backcross is described as Mercury//Lemont/Mercury. Anthers collected from a plant resulting from this backcross were plated on callus induction medium, and the resulting calli were transferred to plant regeneration media. The procedures used were generally as described in Croughan and Chu, "Rice (Oryza saliva L.): Establishment of Callus Cultures and the Regeneration of Plants" in Bajaj (Ed.), "Biotechnology in Agriculture and Forestry," pp. 19-37 (1991). Several regenerated plants were produced and grown to maturity in a greenhouse to produce seed. Progeny seed were planted in an open field, and herbicide applications were made using a garden tractor-mounted spray rig.
A set of 4,193 progeny rows derived from this anther culture procedure were planted in an open field, and were sprayed with 4 ounces per acre of Pursuit (1.00 ounce active ingredient imazethapyr per acre) at the four-leaf stage of seedling development. […]

[6] = tested on: progeny of the mutant rice plant (ATCC 97523); experiment: Subsequent greenhouse and field testing of progeny of the surviving plant; assay type: in vivo; details: herbicides applied either pre-emergence or post-emergence
Source text: (Imazamox is sold by American Cyanamid under the trade name Raptor, and has as active ingredient (+)-5-methoxymethyl-2-(4-isopropyl-4-methyl-5-oxo-2-imidazolin-2-yl) nicotinic acid. Imazameth is sold by American Cyanamid under the trade name Cadre, and has as active ingredient (±)-2-[4,5-dihydro-4-methyl-4-(1-methyl-ethyl)-5-oxo-1H-imidazol-2-yl]- 5-methyl-3-pyridinecarboxylicacid;alternatechemicalname (±)-2-(4-isopropyl-4-methyl-5-oxo-2-imidazolin-2-yl)-5-methylnicotinic acid). Imazapyr is sold by American Cyanamid under the trade name Arsenal, and has active ingredient 2-[4,5-dihydro-4-methyl-4-(1-methylethyl)-5-oxo-1H-imidazol-2-yl]-3-pyridinecarboxylic acid) This line is resistant to herbicides applied either pre-emergence or post-emergence.

CCc1cnc(C2=NC(C)(C(C)C)C(=O)N2)c(C(=O)O)c1 (racemic) [imazethapyr, (±)-2-[4,5-dihydro-4-methyl-4-(1-methylethyl)-5-oxo-1H-imidazol-2-yl]-5-ethyl-3-pyridinecarboxylic acid]
activity at 0.1 µM ([1]; imazethapyr 0.1 μM): 102%
activity at 1 µM ([1]; imazethapyr 1 μM): 102%
activity at 10 µM ([1]; imazethapyr 10 μM): 87%
activity at 100 µM ([1]; imazethapyr 100 μM): 81%
activity at 0.1 µM ([2]; imazethapyr 0.1 μM): 100%
activity at 1 µM ([2]; imazethapyr 1 μM): 89%
activity at 10 µM ([2]; imazethapyr 10 μM): 64%
activity at 100 µM ([2]; imazethapyr 100 μM): 62%
activity at 0.1 µM ([3]; imazethapyr 0.1 μM): 102%
activity at 1 µM ([3]; imazethapyr 1 μM): 89%
activity at 10 µM ([3]; imazethapyr 10 μM): 61%
activity at 100 µM ([3]; imazethapyr 100 μM): 48%
Rating of rice plant vigor ([4]; 0.063 lb. a.i./acre): 0.61 ± 0.03
Rating of rice plant vigor ([4]; 0.125 lb. a.i./acre): 0.81 ± 0.45
Rating of rice plant vigor ([4]; 0.313 lb. a.i./acre): about 0.6
Rating of rice plant vigor ([4]; 0.313 lb. a.i./acre, listed as Imazethapyr): 0.55 ± 0.55
Time to visible resumption of growth after herbicide application ([4]; ATCC 75295 plants, greenhouse test): about three weeks
Visible injury (in words) ([4]; plants with only the first resistance mechanism, 0.313 lb a.i./acre, 36 days after treatment): substantial injury
Symptoms (in words) ([5]; 4 ounces per acre Pursuit (1.00 ounce a.i. per acre), four-leaf stage, open field): no apparent symptoms
Symptoms (in words) ([5]; second spray 8 ounces/acre Pursuit (2.00 ounce a.i. per acre), four weeks after the initial treatment): no apparent symptoms
Resistance of the rice line (in words) [6]: resistance

Source: patent US5736629A, “Herbicide resistant rice” (priority 1997, dated 1998)
